Laboratory results published in patent US20260258402A1, “DEVICE FOR DETERMINING MOLECULAR INTERACTIONS” (Depixus SAS, priority 2023, published 2026).

B1: APFL: APFL protein that bridges Ku70/80 complexes in the NHEJ complex (protein, UniProt Q8IW19 1-511, looked up)
Aprataxin and PNK-like factor: MSGGFELQPRDGGPRVALAPGETVIGRGPLLGITDKRVSRRHAILEVAGGQLRIKPIHTNPCFYQSSEKSQLLPLKPNLWCYLNPGDSFSLLVDKYIFRILSIPSEVEMQCTLRNSQVLDEDNILNETPKSPVINLPHETTGASQLEGSTEIAKTQMTPTNSVSFLGENRDCNKQQPILAERKRILPTWMLAEHLSDQNLSVPAISGGNVIQGSGKEEICKDKSQLNTTQQGRRQLISSGSSENTSAEQDTGEECKNTDQEESTISSKEMPQSFSAITLSNTEMNNIKTNAQRNKLPIEELGKVSKHKIATKRTPHKEDEAMSCSENCSSAQGDSLQDESQGSHSESSSNPSNPETLHAKATDSVLQGSEGNKVKRTSCMYGANCYRKNPVHFQHFSHPGDSDYGGVQIVGQDETDDRPECPYGPSCYRKNPQHKIEYRHNTLPVRNVLDEDNDNVGQPNEYDLNDSFLDDEEEDYEPTDEDSDWEPGKEDEEKEDVEELLKEAKRFMKRK

Experiments:
[1] = target: E3 ligase CEREBLON (in complex with its binding partner DDB1), the neo-target GSPT1 (Homo sapiens, UniProt P15170+Q96SW2); test: Tertiary complex formation between CRBN/DDB1 and GSPT1 with a molecular glue, on the nucleic acid scaffold (force cycles); conditions: for formation / stabilization of the tertiary complex CEREBLON-DDB1 / GSPT1 in the presence of the molecular glue: FIG. 27 and 28, force reduced to 0.01 pN to allow interaction
E3 ligase CEREBLON (in complex with its binding partner DDB1), the neo-target GSPT1, sequence (Q96SW2 whole entry): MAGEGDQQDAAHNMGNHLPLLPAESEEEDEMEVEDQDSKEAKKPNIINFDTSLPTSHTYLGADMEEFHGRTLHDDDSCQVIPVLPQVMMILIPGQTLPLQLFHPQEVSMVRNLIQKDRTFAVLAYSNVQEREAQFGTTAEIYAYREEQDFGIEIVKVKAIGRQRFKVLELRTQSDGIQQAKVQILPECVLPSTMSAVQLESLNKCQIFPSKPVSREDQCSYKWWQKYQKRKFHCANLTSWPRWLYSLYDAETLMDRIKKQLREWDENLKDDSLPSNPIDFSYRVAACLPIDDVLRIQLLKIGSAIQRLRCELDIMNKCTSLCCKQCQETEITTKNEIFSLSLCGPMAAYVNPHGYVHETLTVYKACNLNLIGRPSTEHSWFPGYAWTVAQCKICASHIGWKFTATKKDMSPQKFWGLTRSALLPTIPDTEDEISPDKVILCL
E3 ligase CEREBLON (in complex with its binding partner DDB1), the neo-target GSPT1, sequence (Q16531 whole entry partner): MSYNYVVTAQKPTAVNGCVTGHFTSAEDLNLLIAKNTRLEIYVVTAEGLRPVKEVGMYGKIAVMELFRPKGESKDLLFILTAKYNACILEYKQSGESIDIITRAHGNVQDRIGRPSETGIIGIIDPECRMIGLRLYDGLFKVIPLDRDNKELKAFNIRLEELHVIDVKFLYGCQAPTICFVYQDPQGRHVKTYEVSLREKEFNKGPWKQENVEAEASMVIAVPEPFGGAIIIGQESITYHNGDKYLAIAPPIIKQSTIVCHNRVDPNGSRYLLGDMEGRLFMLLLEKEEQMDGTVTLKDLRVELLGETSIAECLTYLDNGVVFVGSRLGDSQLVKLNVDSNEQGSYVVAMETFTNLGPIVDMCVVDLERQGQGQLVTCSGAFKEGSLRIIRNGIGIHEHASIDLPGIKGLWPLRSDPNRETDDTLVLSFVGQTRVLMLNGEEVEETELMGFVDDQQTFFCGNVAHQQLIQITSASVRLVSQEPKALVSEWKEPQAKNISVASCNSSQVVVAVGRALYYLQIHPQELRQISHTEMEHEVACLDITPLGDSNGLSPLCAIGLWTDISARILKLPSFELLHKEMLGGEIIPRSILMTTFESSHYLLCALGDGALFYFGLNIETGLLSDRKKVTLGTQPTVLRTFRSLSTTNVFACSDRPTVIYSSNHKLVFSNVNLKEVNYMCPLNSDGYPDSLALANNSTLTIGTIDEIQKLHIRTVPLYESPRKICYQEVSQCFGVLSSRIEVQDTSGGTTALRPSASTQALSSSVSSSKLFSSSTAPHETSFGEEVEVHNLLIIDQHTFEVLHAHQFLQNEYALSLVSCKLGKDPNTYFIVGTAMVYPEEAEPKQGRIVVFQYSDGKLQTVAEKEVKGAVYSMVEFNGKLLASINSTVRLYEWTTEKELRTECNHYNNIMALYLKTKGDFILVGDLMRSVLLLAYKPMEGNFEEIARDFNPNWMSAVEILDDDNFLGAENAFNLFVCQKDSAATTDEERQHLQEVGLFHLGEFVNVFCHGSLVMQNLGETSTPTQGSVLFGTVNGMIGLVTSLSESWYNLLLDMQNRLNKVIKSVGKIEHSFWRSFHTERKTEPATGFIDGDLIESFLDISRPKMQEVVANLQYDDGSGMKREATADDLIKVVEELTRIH
E3 ligase CEREBLON (in complex with its binding partner DDB1), the neo-target GSPT1, sequence (P15170 whole entry): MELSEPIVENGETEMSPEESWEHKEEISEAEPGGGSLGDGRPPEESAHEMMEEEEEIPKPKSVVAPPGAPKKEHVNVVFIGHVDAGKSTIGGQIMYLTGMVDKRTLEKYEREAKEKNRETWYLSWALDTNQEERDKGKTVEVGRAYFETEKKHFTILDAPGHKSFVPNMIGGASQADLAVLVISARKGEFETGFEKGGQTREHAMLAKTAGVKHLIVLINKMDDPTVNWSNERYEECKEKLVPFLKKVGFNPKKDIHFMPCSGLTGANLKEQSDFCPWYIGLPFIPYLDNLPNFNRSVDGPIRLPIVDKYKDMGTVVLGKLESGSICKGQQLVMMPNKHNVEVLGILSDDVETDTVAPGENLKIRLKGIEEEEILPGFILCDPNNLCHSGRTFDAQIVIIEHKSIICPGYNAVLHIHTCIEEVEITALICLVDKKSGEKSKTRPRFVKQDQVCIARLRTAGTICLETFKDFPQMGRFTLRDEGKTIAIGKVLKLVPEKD
Protocol: (§2) Briefly, a reference elongation length of a nucleic acid scaffold present in a flow cell was determined at a constant force. Next, a single stranded polynucleotide containing the complementary sequence of the first molecule binding sequence as well as an amine group at the 5′ end (SEQ ID NO: 23) was coupled to candidate protein (CRBN and its binding partner DDB1 that form the E3 ligase complex) by a covalent conjugation (esterification via EDC). In parallel, a second single stranded polynucleotide containing the complementary sequence of the second molecule binding sequence as well as an amine group at the 3′ end (SEQ ID NO: 34) was coupled to candidate protein (GSTP1 neo-substrat of CRBN) by a covalent conjugation (esterification via EDC). A first candidate molecule conjugated to a first polynucleotide and a second candidate molecule covalently conjugated to a second polynucleotide are sequentially injected into the flow cell to anchor them on to the nucleic acid scaffold and form a screening nucleic acid scaffold (FIGS. 27 and 28). Then, a force of 2 pN was applied to determine the maximal elongation length. The force was then reduced to 0.01 pN to allow the two proteins to interact. If the two candidate molecules have binding interaction between them, upon increasing the force back to 2 pN, the elongation observed would be less than the full extension of the screening nucleic acid scaffold. If the two candidate molecules have no binding interaction between them or weaker binding interaction between them than the applied force, the nucleic acid scaffold would fully stretch. The two proteins are not believed to have a native interaction. […] Various concentration of compound can be performed to measure the Kon and Koff of interaction in presence of the compound.

[2] = target: E3 ligase CEREBLON (in complex with its binding partner DDB1), the neo-substrate IKAROS1 (Homo sapiens, UniProt Q13422+Q96SW2)
E3 ligase CEREBLON (in complex with its binding partner DDB1), the neo-substrate IKAROS1, sequence (Q13422 whole entry): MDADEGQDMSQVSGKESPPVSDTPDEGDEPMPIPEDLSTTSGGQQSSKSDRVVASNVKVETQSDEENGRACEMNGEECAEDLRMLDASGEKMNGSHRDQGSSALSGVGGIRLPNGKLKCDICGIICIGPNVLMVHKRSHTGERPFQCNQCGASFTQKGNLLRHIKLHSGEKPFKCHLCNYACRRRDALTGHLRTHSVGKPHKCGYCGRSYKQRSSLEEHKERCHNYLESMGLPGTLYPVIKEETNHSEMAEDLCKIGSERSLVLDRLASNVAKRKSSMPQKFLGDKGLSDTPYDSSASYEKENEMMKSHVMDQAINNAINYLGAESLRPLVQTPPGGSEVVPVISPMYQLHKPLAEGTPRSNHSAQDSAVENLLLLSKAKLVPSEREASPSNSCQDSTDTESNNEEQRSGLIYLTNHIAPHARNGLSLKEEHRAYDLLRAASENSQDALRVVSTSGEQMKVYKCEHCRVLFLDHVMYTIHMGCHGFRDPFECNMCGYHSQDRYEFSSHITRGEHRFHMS
E3 ligase CEREBLON (in complex with its binding partner DDB1), the neo-substrate IKAROS1, sequence (Q16531 whole entry, further chain): as the sequence (Q16531 whole entry partner) above
E3 ligase CEREBLON (in complex with its binding partner DDB1), the neo-substrate IKAROS1, sequence (Q96SW2 whole entry): as the sequence (Q96SW2 whole entry) above
Protocol: as §2

[3] = system: double stranded blunt end substrates; test: NHEJ complex formation on two double stranded blunt end substrates on the scaffold (force cycles); assay type: binding; conditions: for role in the complex formed on the blunt end adapters: FIG. 25B, Ku70/80 and APFL injected together, 2 pN
Protocol: The system described in Example 1 and Example 2 was used for determining binding kinetics between two substrates and proteins that form a Non-Homologous End Joining (NHEJ) complex. The NHEJ complex recognizes double stranded blunt ends and repair these lesions in the cell. Accordingly, two substrates, each comprising a single stranded carrier polynucleotide and a candidate molecule comprising a double stranded blunt end were prepared, wherein the single stranded carrier polynucleotide was complementary to a molecule binding sequence of a nucleic acid scaffold. The double stranded blunt end was prepared by annealing twice two oligos together (SEQ ID NOS: 14 and 15, as well as SEQ ID NOS: 17 and 18 at 10 μM each in PBS).
Because each of the proposed sequences contained the glue sequence for first and second molecule binding sequence respectively, the substrates could be directed to a specific location on the nucleic acid scaffold. Accordingly, the two substrates for the NHEJ complex were anchored to two molecule binding sequences of the nucleic acid scaffold to form a screening nucleic acid scaffold. The excess substrates were washed away. A reference elongation length of a screening nucleic acid scaffold was determined by applying 2 pN force in the absence of the substrates.
(§1) Next, two candidate proteins, KU70/80 complex as well as the APFL protein together into PBS 1X, were injected within the flow cell. The flow was stop and force cycles experiments were initiated. Blockage traces were recorded at 0.1 pN and 2 pN. At 0.1 pN force, the screening nucleic acid scaffold was unstructured, which allowed the two blunt ends to be brought in close proximity. […] Because the method was a non-destructive process, the force cycles were repeated multiple times to further probe the interaction.
The system described in Example 1 and Example 2 was used for determining binding kinetics between two substrates and proteins that form a Non-Homologous End Joining (NHEJ) complex. The NHEJ complex recognizes double stranded blunt ends and repairs these lesions in the cell. Accordingly, two substrates, each comprising a single stranded carrier polynucleotide and a candidate molecule comprising a double stranded blunt end were prepared, wherein the single stranded carrier polynucleotide was complementary to a molecule binding sequence of a nucleic acid scaffold. The two double stranded blunt end adapters were prepared by annealing in two separate tubes two oligos together (SEQ ID NOS: 14 and 15, as well as SEQ ID NOS: 17 and 18 at 10 μM each in a buffer containing: 50 mM NaCl, 10 mM Tris-HCl, 10 mM MgCl2, 1 mM DTT at pH 7.9 @ 25° C.).
Because the proposed system was based on the protein complex recognizing blunt ends DNA, the substrates could be directed to a specific location on the nucleic acid scaffold. Accordingly, the two substrates for the NHEJ complex were anchored to two molecule binding sequences of the nucleic acid scaffold to form a screening nucleic acid scaffold. The excess substrates were washed away. A reference elongation length of a screening nucleic acid scaffold was determined by applying force cycles at three step forces: 0.01, 2 and 20 pN force in the absence of the substrates.
as §1, with “a buffer containing: 20 mM Hepes-KOH PH7.8, 100 mM KCL, 5 mM MgCl2, 1 mM DTT, 0.5 mg/mL BSA, and they” for “PBS 1X,”, “Force cycles” for “Blockage traces”, “were the force varies between three plateau: 0.01 pN, 2” for “at 0.1”, “20 pN (FIG. 25A).” for “2 pN.”, “0.01” for “0.1”

[4] = Example 3, both proteins injected together in PBS 1X, force cycles 0.1 pN and 2 pN
[5] = Example 12, both proteins injected together, force cycles 0.01, 2 and 20 pN

| Molecule | formation / stabilization of the tertiary complex CEREBLON-DDB1 / GSPT1 in the presence of the molecular glue [1] | blockage of scaffold stretching (complex on the two blunt end substrates) [3, 4] | blockage of scaffold stretching (complex on the two blunt end substrates) [3, 5] | role in the complex formed on the blunt end adapters [3] | further results |
| --- | --- | --- | --- | --- | --- |
| Cc1ccc(NC(=O)NCc2ccc3c(c2)CN(C2CCC(=O)NC2=O)C3=O)cc1Cl (centres unmarked) [CC885] | greatly stabilizes the complex | – | – | – | force needed to break the tertiary complex ([1]; FIG. 27, CEREBLON-DDB1 / GSPT1): 20 pN; time to reform the complex when the force is reduced to 0.01 pN ([1]; FIG. 27, after breaking at 20 pN): few second |
| Nc1cccc2c1C(=O)N(C1CCC(=O)NC1=O)C2=O (centres unmarked) [pomalidomide] | – | – | – | – | force the tertiary complex can sustain ([2]; FIG. 29): up to 2 pN; formation of the tertiary complex CEREBLON-DDB1 / IKAROS1 upon addition of the molecular glue ([2]; FIG. 29): strong tertiary complex is formed; interaction between CRBN E3 ligase and IKZF1 in presence of the compound ([2]; compound at 1 nM): the interaction was observed |
| O=C1CCC(N2C(=O)c3ccccc3C2=O)C(=O)N1 (centres unmarked) [thalidomide] | possible to observe formation of the tertiary complex | – | – | – | strength of the tertiary complex interaction (in words) ([1]; FIG. 28, compared with CC885): the interaction is weaker and can be broken even at low force |
| KU70/80: KU70/80 complex, which binds at the double stranded breaks (NHEJ) | – | one or more transient blockages were observed | one or more transient blockages were observed | form at the blunt end of both adapters | – |
| B1 | – | one or more transient blockages were observed | one or more transient blockages were observed | bridges these complexes | – |
